# What was measured:
# Alternaria solani = conditions: 500 ppm, sprayed the day before inoculation, tomato seedlings, assessed after 5 days; untreated plants 90% infected
# Experimental: Preventative Fungicidal Control of Early Blight on Tomatoes (Alternaria solani)
# Young seedlings of tomato plants were grown in pots. These plants were sprayed to run-off with an aqueous suspension, containing the concentration of active ingredient or mixture mentioned in the table below. The next day, the treated plants were inoculated with an aqueous suspension of Alternaria solani. Then the trial plants were immediately transferred to a humid chamber. After 5 days at 18 to 20° C. and a relative humidity close to 100%, the extent of fungal attack on the leaves was visually assessed as % diseased leaf area.
# Septoria tritici = assay: Preventative control of leaf blotch on wheat (Example 4); type: in vivo; conditions: 500 ppm, sprayed the day before inoculation, wheat seedlings, assessed after 4 weeks; untreated plants 90% infected
# Phakopsora pachyrhizi = assay: Protective control of soy bean rust on soy beans (Example 5); type: in vivo; conditions: 500 ppm, sprayed to run-off 1 day before inoculation, soy bean seedlings, assessed after fourteen days; untreated plants 90% infected
substance,measurement,setting,value
"6-Methyl-5H-Pyrrolo[3″,4″:5,6][1,4]dithiino-[2,3-C]isothiazole-3-carbonitrile-5,7(6H)-dione [Example 1.1]",infection (% diseased leaf area),Alternaria solani,less than or equal to 5%
same,infection (% diseased leaf area),Septoria tritici,less than or equal to 3%
same,infection (% diseased leaf area),Phakopsora pachyrhizi,less than or equal to 1%

# From patent publication US20150315212A1, “SUBSTITUTED 1,4-DITHIINE DERIVATIVES AND THEIR USE AS FUNGICIDES” (BASF SE, priority 2012, published 2015)
